For data set [1], the system named is Cryptococcus neoformans. The data set is described as follows: Antifungal activity against Cryptococcus neoformans clinical isolate HN1 assessed as fungal growth inhibition incubated for 72 hrs in presence of Fluconazole by broth microdilution method. The data set is classed as functional. (In broth dilution the organism is exposed to a series of concentrations in liquid medium.)

The nature of data set [2]: MRT (0 to t) in Sprague-Dawley rat at 5 mg/kg,po by LC-MS/MS analysis. The settings on record: in vivo. The data set is classed as ADME, organism-based.
Data set [3] can be described thus: Volume of distribution at steady state in Sprague-Dawley rat at 2 mg/kg,iv by LC-MS/MS analysis. As to conditions: in vivo. The data set is classed as ADME, organism-based.
Data set [4] has as its system Candida parapsilosis. The data set can be described thus: Synergistic antifungal activity against Candida parapsilosis ATCC22019 assessed as fractional inhibitory concentration index incubated for 48 hrs in presence of Fluconazole by broth microdilution method. The data set is classed as functional.
Data set [5] relates to Candida parapsilosis. The data set is described as follows: Antifungal activity against Candida parapsilosis ATCC22019 assessed as fungal growth inhibition incubated for 48 hrs in presence of Fluconazole by broth microdilution method. The data set is classed as functional. As to conditions: Lodderomyces parapsilosis.
Data set [6] can be described thus: Tmax in Sprague-Dawley rat at 5 mg/kg,po by LC-MS/MS analysis. The data set is classed as ADME, organism-based. As to conditions: in vivo.
The subject of data set [7] is Cryptococcus neoformans. The data set is described as follows: Synergistic antifungal activity against Cryptococcus neoformans clinical isolate HN1 assessed as fractional inhibitory concentration index incubated for 72 hrs in presence of Fluconazole by broth microdilution method. The data set is classed as functional.
Data set [8] relates to Cryptococcus gattii species complex. The data set is described as follows: Synergistic antifungal activity against Cryptococcus gattii E566 assessed as fractional inhibitory concentration index incubated for 72 hrs in presence of Fluconazole by broth microdilution method. The data set is classed as functional.
For data set [9] the test system is unchanged. The data set is described as follows: Antifungal activity against Cryptococcus gattii clinical isolate SCZ20031 assessed as fungal growth inhibition incubated for 72 hrs in presence of Fluconazole by broth microdilution method. The data set is classed as functional.
Data set [10] deals with Cryptococcus neoformans. The data set can be described thus: Antifungal activity against Cryptococcus neoformans H99 assessed as reduction on fungal growth at 2 ug/ml incubated for 48 hrs by plate reader assay. The data set is classed as functional. On the set-up: scale not given: the % may be the effect or the level left. As to conditions: dose 2 µg/ml.
The test system of data set [11] is Cryptococcus neoformans. The data set can be described thus: Synergistic antifungal activity against Cryptococcus neoformans clinical isolate HN20 assessed as fractional inhibitory concentration index incubated for 72 hrs in presence of Fluconazole by broth microdilution method. The data set is classed as functional.
In data set [12] the test system is Cryptococcus neoformans. The data set can be described thus: Synergistic antifungal activity against Cryptococcus neoformans H99 assessed as fractional inhibitory concentration index incubated for 72 hrs in presence of Fluconazole by broth microdilution method. The data set is classed as functional.
Data set [13] is described as follows: MRT (0 to t) in Sprague-Dawley rat at 2 mg/kg,iv by LC-MS/MS analysis. The data set is classed as ADME, organism-based. As to conditions: in vivo.
Data set [14] has as its system Cryptococcus deuterogattii. The data set is described as follows: Antifungal activity against Cryptococcus gattii WM178 assessed as reduction on fungal growth at 8 ug/ml incubated for 48 hrs by plate reader assay. The settings on record: Cryptococcus gattii species complex, dose 8.0 µg/ml. The data set is classed as functional, organism-based.
The subject of data set [15] is Cryptococcus neoformans. The data set can be described thus: Antifungal activity against Cryptococcus neoformans H99 infected in Wax moth larvae assessed as survival rate at 10 mg/kg measured after 9 days in presence of Fluconazole by Kaplan-Meier method. The data set is classed as functional. The settings on record: H99, 216 h, time 9 day.
Data set [16] deals with Cryptococcus neoformans. The data set is described as follows: Antifungal activity against Cryptococcus neoformans H99 assessed as fungal growth inhibition incubated for 72 hrs in presence of Fluconazole by broth microdilution method. The data set is classed as functional.
Data set [17] concerns Cryptococcus gattii species complex. The data set is described as follows: Synergistic antifungal activity against Cryptococcus gattii clinical isolate SCZ20031 assessed as fractional inhibitory concentration index incubated for 72 hrs in presence of Fluconazole by broth microdilution method. The data set is classed as functional.
Data set [18] relates to Cryptococcus neoformans. The data set is described as follows: Synergistic antifungal activity against Cryptococcus neoformans clinical isolate 56992 assessed as fractional inhibitory concentration index incubated for 72 hrs in presence of Fluconazole by broth microdilution method. The data set is classed as functional.
Data set [19] concerns Cryptococcus neoformans. The data set can be described thus: Antifungal activity against Cryptococcus neoformans clinical isolate HN15 assessed as fungal growth inhibition incubated for 72 hrs in presence of P163-0892 by broth microdilution method. The data set is classed as functional.
For data set [20], the system named is Candida tropicalis. The data set can be described thus: Synergistic antifungal activity against Candida tropicalis ATCC20026 assessed as fractional inhibitory concentration index incubated for 48 hrs in presence of P163-0892 by broth microdilution method. The data set is classed as functional.
Data set [21] concerns Nakaseomyces glabratus. The data set can be described thus: Antifungal activity against Candida glabrata ATCC1182 assessed as fungal growth inhibition incubated for 48 hrs in presence of P163-0892 by broth microdilution method. The data set is classed as functional.
Data set [22] relates to Candida albicans. The data set can be described thus: Antifungal activity against Candida albicans SC5314 assessed as fungal growth inhibition incubated for 48 hrs in presence of P163-0892 by broth microdilution method. The data set is classed as functional.
Data set [23] concerns Cryptococcus neoformans. The data set is described as follows: Synergistic antifungal activity against Cryptococcus neoformans clinical isolate HN20 assessed as fractional inhibitory concentration index incubated for 72 hrs in presence of P163-0892 by broth microdilution method. The data set is classed as functional.
The test system of data set [24] is Cryptococcus gattii species complex. The data set can be described thus: Synergistic antifungal activity against Cryptococcus gattii clinical isolate SCZ20024 assessed as fractional inhibitory concentration index incubated for 72 hrs in presence of P163-0892 by broth microdilution method. The data set is classed as functional.
Data set [25] concerns Cryptococcus neoformans. The data set is described as follows: Antifungal activity against Cryptococcus neoformans clinical isolate 444 assessed as fungal growth inhibition incubated for 72 hrs in presence of P163-0892 by broth microdilution method. The data set is classed as functional.
Data set [26] has as its system Cryptococcus neoformans. The data set is described as follows: Antifungal activity against Cryptococcus neoformans clinical isolate SH68 assessed as fungal growth inhibition incubated for 72 hrs in presence of P163-0892 by broth microdilution method. The data set is classed as functional.
In data set [27] the test system is Cryptococcus neoformans. The data set is described as follows: Antifungal activity against Cryptococcus neoformans clinical isolate 56992 assessed as fungal growth inhibition incubated for 72 hrs in presence of P163-0892 by broth microdilution method. The data set is classed as functional.
Data set [28] relates to Candida albicans. The data set can be described thus: Synergistic antifungal activity against Candida albicans SC5314 assessed as fractional inhibitory concentration index incubated for 48 hrs in presence of P163-0892 by broth microdilution method. The data set is classed as functional.
Data set [29] has as its system Cryptococcus neoformans. The data set can be described thus: Antifungal activity against Cryptococcus neoformans H99 assessed as fungal growth inhibition incubated for 72 hrs in presence of P163-0892 by broth microdilution method. The data set is classed as functional.
The subject of data set [30] is [Candida] auris. The data set can be described thus: Synergistic antifungal activity against Candida auris CBS 12372 assessed as fractional inhibitory concentration index incubated for 48 hrs in presence of P163-0892 by broth microdilution method. The data set is classed as functional, Candidozyma auris.
Data set [31] concerns Cryptococcus neoformans. The data set is described as follows: Synergistic antifungal activity against Cryptococcus neoformans clinical isolate HN2 assessed as fractional inhibitory concentration index incubated for 72 hrs in presence of P163-0892 by broth microdilution method. The data set is classed as functional.
Data set [32] deals with Cryptococcus neoformans. The data set is described as follows: Antifungal activity against Cryptococcus neoformans clinical isolate HN2-40 assessed as fungal growth inhibition incubated for 72 hrs in presence of P163-0892 by broth microdilution method. The data set is classed as functional.
For data set [33], the system named is Cryptococcus neoformans. The data set can be described thus: Synergistic antifungal activity against Cryptococcus neoformans clinical isolate HN15 assessed as fractional inhibitory concentration index incubated for 72 hrs in presence of P163-0892 by broth microdilution method. The data set is classed as functional.
Data set [34] deals with Cryptococcus neoformans. The data set can be described thus: Synergistic antifungal activity against Cryptococcus neoformans clinical isolate 444 assessed as fractional inhibitory concentration index incubated for 72 hrs in presence of P163-0892 by broth microdilution method. The data set is classed as functional.
The subject of data set [35] is Cryptococcus neoformans. The data set can be described thus: Synergistic antifungal activity against Cryptococcus neoformans clinical isolate HN19 assessed as fractional inhibitory concentration index incubated for 72 hrs in presence of P163-0892 by broth microdilution method. The data set is classed as functional.
Data set [36] has as its system Cryptococcus neoformans. The data set can be described thus: Antifungal activity against Cryptococcus neoformans clinical isolate HN1 assessed as fungal growth inhibition incubated for 72 hrs in presence of P163-0892 by broth microdilution method. The data set is classed as functional.
In data set [37] the test system is Cryptococcus gattii. The data set can be described thus: Antifungal activity against Cryptococcus gattii WM179 assessed as fungal growth inhibition incubated for 72 hrs in presence of P163-0892 by broth microdilution method. The data set is classed as functional, Cryptococcus gattii species complex.
For data set [38], the system named is Cryptococcus neoformans. The data set is described as follows: Antifungal activity against Cryptococcus neoformans H99 infected in Wax moth larvae assessed as survival rate at 10 mg/kg measured after 9 days in presence of P163-0892 by Kaplan-Meier method. The data set is classed as functional. As to conditions: H99, 216 h, time 9 day.

Calls of active or inactive are those of the source. No cut-off for these calls is given here.

For orientation: MIC means the least concentration at which growth counts as inhibited. What is called MRT last is the average time that molecules of a dose stay in the body. The term Vdss denotes the apparent volume that relates the amount in the body to the concentration in plasma or blood. Usually Tmax stands for the time at which the peak concentration occurs. Take `CCCCNC(=O)c1c(O)c2sccc2n(Cc2ccccc2)c1=O`: the MIC in data set [1] worked out at 0.0313 µg/mL; in data set [5] it was 16 µg/mL; in data set [9], 0.125 µg/mL; in data set [16], 0.0625 µg/mL. The same compound came in with an MRT last in [2] of 3.83 h. This compound came in with a distribution volume (Vdss) in [3] of 7.12 L/kg. The “fractional inhibitory concentration index (FICI)” value in [4] was found to be 0.625; in data set [7], 0.125; in [8], 0.188; in data set [11] it was 0.375; in data set [12] it was 0.375; in [17], 0.25. In addition, the “fractional inhibitory concentration index (FICI)” value in data set [18] worked out at 0.25. Moreover, the Tmax in data set [6] was 3.17 min. In [10], the Activity came to 46.8%. The “MRT(t)” value in [13] amounted to 2.63 h. Also, the result in data set [14] was Active. Further, the survival at 10 mg/kg in [15] was found to be 65%.
Turning to `OC(Cn1cncn1)(Cn1cncn1)c1ccc(F)cc1F` [FLUCONAZOLE], the MIC turned out to be 1 µg/mL in data set [19]; 4 µg/mL in data set [21]; 1 µg/mL in [22]; 0.5 µg/mL in data set [25]; 1 µg/mL in [26]; 0.25 µg/mL in data set [27]. Moreover, the MIC in data set [29] amounted to 2 µg/mL; in data set [32] it was 0.125 µg/mL; in data set [36] it was 0.125 µg/mL; in data set [37], 0.5 µg/mL. Moreover, the “fractional inhibitory concentration index (FICI)” value is on record as 0.516 in data set [20]; 0.375 in [23]; 0.313 in data set [24]; 1.008 in data set [28]; 1.008 in data set [30]; 0.188 in data set [31]. Further, the “fractional inhibitory concentration index (FICI)” value in [33] turned out to be 0.313; in [34], 0.156; in data set [35], 0.281. Further, the survival at 10 mg/kg in data set [38] is 65%.

The record behind these values is ChEMBL document CHEMBL5137080, “Discovery of Novel 7-Hydroxy-5-oxo-4,5-dihydrothieno[3,2-b]pyridine-6-carboxamide Derivatives with Potent and Selective Antifungal Activity against Cryptococcus Species” (J Med Chem, 2022).
